Source: patent publication US10160755B2 (Plexxikon Inc., priority 2015, dated 2018)

What was measured:
[1] = target: T1, FLT3-ITD (Homo sapiens, UniProt P36888); assay: FLT3-ITD biochemical kinase assay (AlphaScreen)
T1 construct: FLT3-ITD; Invitrogen #PV6190
T1 sequence (P36888 1-993): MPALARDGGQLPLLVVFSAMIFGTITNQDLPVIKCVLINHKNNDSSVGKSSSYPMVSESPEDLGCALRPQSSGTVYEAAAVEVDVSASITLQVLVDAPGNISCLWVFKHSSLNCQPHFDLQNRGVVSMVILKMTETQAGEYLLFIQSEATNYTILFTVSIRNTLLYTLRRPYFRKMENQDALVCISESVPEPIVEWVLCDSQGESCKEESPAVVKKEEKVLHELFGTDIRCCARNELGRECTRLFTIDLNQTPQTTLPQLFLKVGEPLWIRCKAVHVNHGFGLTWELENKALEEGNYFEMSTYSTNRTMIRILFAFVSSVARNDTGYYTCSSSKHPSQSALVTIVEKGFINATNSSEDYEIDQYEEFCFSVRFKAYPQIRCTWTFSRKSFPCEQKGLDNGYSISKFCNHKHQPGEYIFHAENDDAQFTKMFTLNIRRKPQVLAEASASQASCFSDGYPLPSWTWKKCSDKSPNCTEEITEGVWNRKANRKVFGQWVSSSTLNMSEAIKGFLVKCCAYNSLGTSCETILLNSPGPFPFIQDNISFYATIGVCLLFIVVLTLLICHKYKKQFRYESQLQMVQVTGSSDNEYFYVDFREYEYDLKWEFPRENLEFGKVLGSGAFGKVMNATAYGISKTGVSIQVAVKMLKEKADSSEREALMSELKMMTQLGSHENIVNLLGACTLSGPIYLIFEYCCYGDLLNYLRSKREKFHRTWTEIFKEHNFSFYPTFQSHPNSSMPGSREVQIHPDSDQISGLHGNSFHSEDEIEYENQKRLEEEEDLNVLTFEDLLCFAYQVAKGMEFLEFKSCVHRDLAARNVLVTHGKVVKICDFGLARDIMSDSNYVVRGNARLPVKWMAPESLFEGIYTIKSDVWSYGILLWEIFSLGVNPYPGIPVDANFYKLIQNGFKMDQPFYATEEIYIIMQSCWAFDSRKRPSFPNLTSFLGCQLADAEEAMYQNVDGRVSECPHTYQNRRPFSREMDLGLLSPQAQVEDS
Outline: (§1)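 Recombinant kinase, biotin-GG(EEEEY)10EE 30 nM final, ATP 10 μM (D835Y) / 100 μM (ITD). Stop/detect: SA donor beads 20 min RT, then PY20 acceptor beads 60 min RT. AlphaScreen 580 nm signal; IC50.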

[2] = target: T2, FLT3-D835Y (Homo sapiens, UniProt P36888, D835Y); assay: FLT3-D835Y biochemical kinase assay (AlphaScreen)
T2 construct: purchased Invitrogen PV3967
T2 sequence (P36888 27-993 D835Y): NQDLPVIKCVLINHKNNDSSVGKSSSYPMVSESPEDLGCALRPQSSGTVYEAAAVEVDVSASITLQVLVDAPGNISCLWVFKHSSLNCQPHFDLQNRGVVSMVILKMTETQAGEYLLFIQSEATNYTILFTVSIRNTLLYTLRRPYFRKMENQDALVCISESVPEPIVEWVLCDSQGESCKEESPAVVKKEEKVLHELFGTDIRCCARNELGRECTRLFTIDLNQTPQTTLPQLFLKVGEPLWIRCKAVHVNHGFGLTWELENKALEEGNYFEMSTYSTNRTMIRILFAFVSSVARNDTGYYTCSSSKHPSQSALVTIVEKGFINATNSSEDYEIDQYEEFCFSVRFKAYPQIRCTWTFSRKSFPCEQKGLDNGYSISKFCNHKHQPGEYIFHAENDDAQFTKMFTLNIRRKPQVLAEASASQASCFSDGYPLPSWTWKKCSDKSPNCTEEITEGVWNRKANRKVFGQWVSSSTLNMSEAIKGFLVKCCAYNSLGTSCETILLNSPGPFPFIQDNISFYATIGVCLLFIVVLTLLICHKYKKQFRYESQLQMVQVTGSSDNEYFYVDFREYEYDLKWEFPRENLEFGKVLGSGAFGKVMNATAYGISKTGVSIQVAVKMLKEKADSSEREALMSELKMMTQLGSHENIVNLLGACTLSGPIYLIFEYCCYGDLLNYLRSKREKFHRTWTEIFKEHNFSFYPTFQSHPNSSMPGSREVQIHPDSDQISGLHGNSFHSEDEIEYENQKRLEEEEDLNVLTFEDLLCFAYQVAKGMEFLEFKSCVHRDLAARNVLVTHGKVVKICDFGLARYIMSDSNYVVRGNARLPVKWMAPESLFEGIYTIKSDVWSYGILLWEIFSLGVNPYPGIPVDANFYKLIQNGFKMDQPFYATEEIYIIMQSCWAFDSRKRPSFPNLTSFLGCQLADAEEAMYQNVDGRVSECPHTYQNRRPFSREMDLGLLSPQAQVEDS
Outline: as §1

IC50 [1]	IC50 [2]	SMILES
0.0001 to 1 µM	0.0001 to 1 µM	CCN1CCN(c2ccc(-c3cnc4[nH]cc(-c5ccc6ncn(C(C)(C)C)c6c5)c4n3)cc2)CC1 [P-358, 7-(3-tert-butylbenzimidazol-5-yl)-2-[4-(4-ethylpiperazin-1-yl)phenyl]-5H-pyrrolo[2,3-b]pyrazine]
0.0001 to 1 µM	0.0001 to 1 µM	CN1CCN(c2ccc(-c3cnc4[nH]cc(-c5ccc6ncn(C7CCCNC7)c6c5)c4n3)cc2)CC1 (centres unmarked) [P-344, 2-[4-(4-methylpiperazin-1-yl)phenyl]-7-[3-(3-piperidyl)benzimidazol-5-yl]-5H-pyrrolo[2,3-b]pyrazine]
0.0001 to 1 µM	0.0001 to 1 µM	CC(C)(C)n1cnc2ccc(-c3c[nH]c4ncc(-c5cnc(N6CCC(F)(F)CC6)nc5)nc34)cc21 [P-357, 7-(3-tert-butylbenzimidazol-5-yl)-2-[2-(4,4-difluoro-1-piperidyl)pyrimidin-5-yl]-5H-pyrrolo[2,3-b]pyrazine]
0.0001 to 1 µM	0.0001 to 1 µM	CCN1CCN(c2cc(-c3cnc4[nH]cc(-c5ccc6ncn(C7CCCNC7)c6c5)c4n3)ccn2)CC1 (centres unmarked) [P-327, 2-[2-(4-ethylpiperazin-1-yl)-4-pyridyl]-7-[3-(3-piperidyl)benzimidazol-5-yl]-5H-pyrrolo[2,3-b]pyrazine]
0.0001 to 1 µM	0.0001 to 1 µM	COc1ncc(-c2cnc3[nH]cc(-c4ccc5ncn(C6CCCNC6)c5c4)c3c2)cn1 (centres unmarked) [P-276, 5-(2-methoxypyrimidin-5-yl)-3-[3-(3-piperidyl)benzimidazol-5-yl]-1H-pyrrolo[2,3-b]pyridine]
0.0001 to 1 µM	0.0001 to 1 µM	CC(C)(C)n1cnc2ccc(-c3c[nH]c4ncc(-c5cccc(N6CCCS6(=O)=O)c5)cc34)cc21 [P-278, 2-[3-[3-(3-tert-butylbenzimidazol-5-yl)-1H-pyrrolo[2,3-b]pyridin-5-yl]phenyl]-1,2-thiazolidine 1,1-dioxide]
0.0001 to 1 µM	0.0001 to 1 µM	c1cc(N2CCCCC2)ccc1-c1cnc2[nH]cc(-c3ccc4ncn(C5CCCNC5)c4c3)c2n1 (centres unmarked) [P-346, 7-[3-(3-piperidyl)benzimidazol-5-yl]-2-[4-(1-piperidyl)phenyl]-5H-pyrrolo[2,3-b]pyrazine]
0.0001 to 1 µM	0.0001 to 1 µM	CCN1CCN(c2ccc(-c3cnc4[nH]cc(-c5ccc6ncn(C7CCCNC7)c6c5)c4n3)cc2)CC1 (centres unmarked) [P-359, 2-[4-(4-ethylpiperazin-1-yl)phenyl]-7-[3-(3-piperidyl)benzimidazol-5-yl]-5H-pyrrolo[2,3-b]pyrazine]
0.0001 to 1 µM	0.0001 to 1 µM	COc1cc(-c2cnc3[nH]cc(-c4ccc5ncn(C6CCCN(S(C)(=O)=O)C6)c5c4)c3n2)ccn1 (centres unmarked) [P-281, 2-(2-methoxy-4-pyridyl)-7-[3-(1-methylsulfonyl-3-piperidyl)benzimidazol-5-yl]-5H-pyrrolo[2,3-b]pyrazine]
0.0001 to 1 µM	0.0001 to 1 µM	CCN1CCN(c2ccc(-c3cnc4[nH]cc(-c5ccc6ncn(C(C)(C)C)c6c5)c4n3)cn2)CC1 [P-365, 7-(3-tert-butylbenzimidazol-5-yl)-2-[6-(4-ethylpiperazin-1-yl)-3-pyridyl]-5H-pyrrolo[2,3-b]pyrazine]
0.0001 to 1 µM	0.0001 to 1 µM	c1cc(-c2cnc3[nH]cc(-c4ccc5ncn(C6CCCNC6)c5c4)c3c2)cc(N2CCOCC2)c1 (centres unmarked) [P-317, 4-[3-[3-[3-(3-piperidyl)benzimidazol-5-yl]-1H-pyrrolo[2,3-b]pyridin-5-yl]phenyl]morpholine]
0.0001 to 1 µM	0.0001 to 1 µM	CC(C)(C)n1cnc2ccc(-c3c[nH]c4nnc(Cl)cc34)cc21 [P-314, 5-(3-tert-butylbenzimidazol-5-yl)-3-chloro-7H-pyrrolo[2,3-c]pyridazine]
0.0001 to 1 µM	0.0001 to 1 µM	CC(C)(C)n1cnc2ccc(-c3c[nH]c4ncc(-c5ccc(N6CCCS6(=O)=O)cc5)cc34)cc21 [P-320, 2-[4-[3-(3-tert-butylbenzimidazol-5-yl)-1H-pyrrolo[2,3-b]pyridin-5-yl]phenyl]-1,2-thiazolidine 1,1-dioxide]
0.0001 to 1 µM	0.0001 to 1 µM	Cc1ncc(C#Cc2cnc3[nH]cc(-c4ccc5ncn(C(C)(C)C)c5c4)c3c2)cn1 [P-383, 1-tert-butyl-6-[5-[2-(2-methylpyrimidin-5-yl)ethynyl]-1H-pyrrolo[2,3-b]pyridin-3-yl]benzimidazole]
0.0001 to 1 µM	0.0001 to 1 µM	CC(C)(O)c1ncc(-c2cnc3[nH]cc(-c4ccc5ncn(C(C)(C)C)c5c4)c3n2)cn1 [P-380, 2-[5-[7-(3-tert-butylbenzimidazol-5-yl)-5H-pyrrolo[2,3-b]pyrazin-2-yl]pyrimidin-2-yl]propan-2-ol]
0.0001 to 1 µM	0.0001 to 1 µM	c1cc(N2CCOCC2)ncc1-c1cnc2[nH]cc(-c3ccc4ncn(C5CCCNC5)c4c3)c2c1 (centres unmarked) [P-321, 4-[5-[3-[3-(3-piperidyl)benzimidazol-5-yl]-1H-pyrrolo[2,3-b]pyridin-5-yl]-2-pyridyl]morpholine]
0.0001 to 1 µM	0.0001 to 1 µM	CN1CCN(c2ccc(-c3cnc4[nH]cc(-c5ccc6ncn(C(C)(C)C)c6c5)c4n3)cc2)CC1 [P-341, 7-(3-tert-butylbenzimidazol-5-yl)-2-[4-(4-methylpiperazin-1-yl)phenyl]-5H-pyrrolo[2,3-b]pyrazine]
0.0001 to 1 µM	0.0001 to 1 µM	CC(C)(C)n1cnc2ccc(-c3c[nH]c4ncc(-c5ccc(N6CCOCC6)nc5)nc34)cc21 [P-326, 4-[5-[7-(3-tert-butylbenzimidazol-5-yl)-5H-pyrrolo[2,3-b]pyrazin-2-yl]-2-pyridyl]morpholine]
0.0001 to 1 µM	0.0001 to 1 µM	Cc1cc(C#Cc2cnc3[nH]cc(-c4ccc5ncn(C6CCCNC6)c5c4)c3n2)cc(C)n1 (centres unmarked) [P-283, 2-[2-(2,6-dimethyl-4-pyridyl)ethynyl]-7-[3-(3-piperidyl)benzimidazol-5-yl]-5H-pyrrolo[2,3-b]pyrazine]
0.0001 to 1 µM	0.0001 to 1 µM	FC(F)(F)Cn1cc(-c2cnc3[nH]cc(-c4ccc5ncn(C6CCCNC6)c5c4)c3c2)cn1 (centres unmarked) [P-275, 1-(3-piperidyl)-6-[5-[1-(2,2,2-trifluoroethyl)pyrazol-4-yl]-1H-pyrrolo[2,3-b]pyridin-3-yl]benzimidazole]
0.0001 to 1 µM	0.0001 to 1 µM	Cc1cc(C#Cc2cnc3[nH]cc(-c4ccc5ncn(C(C)(C)C)c5c4)c3n2)cc(C)n1 [P-282, 7-(3-tert-butylbenzimidazol-5-yl)-2-[2-(2,6-dimethyl-4-pyridyl)ethynyl]-5H-pyrrolo[2,3-b]pyrazine]
0.0001 to 1 µM	0.0001 to 1 µM	CC(C)(C)n1cnc2ccc(-c3c[nH]c4ncc(-c5ccnc(N6CCCCC6)c5)nc34)cc21 [P-338, 7-(3-tert-butylbenzimidazol-5-yl)-2-[2-(1-piperidyl)-4-pyridyl]-5H-pyrrolo[2,3-b]pyrazine]
